Reference: ChEMBL document CHEMBL1201862, “PubChem BioAssay data set” (2004)
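Tested at 5 concentrations; 48 h exposure; 96-well plates; endpoints linearly interpolated, else capped at highest concentration. GI50 = concentration required for 50% inhibition of growth.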 Active and inactive are the calls of the source. Rule as the data show it: active = GI50 up to about 1.1 µM and inactive = higher. Where a SMILES comes first, the peptide text is derived from it. Square brackets hold non-standard residues; d marks the D form. Peptide text beside a SMILES is read from it.

Legend:
Test in all cases: NCI-60 cell line screen, 48 h
DMS-114 = tested on: DMS-114
DMS-273 = tested on: DMS-273
HOP-18 = tested on: HOP-18
KM-20L2 = tested on: KM-20L2
M19-MEL = tested on: M19-MEL
RXF 631 = tested on: RXF 631
XF498 = tested on: XF498
LXFL 529 = tested on: LXFL 529
SNB-78 = tested on: SNB-78

Measured: GI50

N#CNCC(COCc1ccccc1)c1ccccc1 (stereo unspecified)
inactive: DMS-114 53.2 µM | DMS-273 94.4 µM | HOP-18 > 100 µM | KM-20L2 > 100 µM | M19-MEL > 100 µM | RXF 631 > 100 µM | XF498 47.6 µM

CCOc1ccc(OCC)c([P+](c2ccccc2)(c2ccccc2)c2ccccc2)c1
inactive: RXF 631 2.4 µM
active: DMS-114 0.245 µM | DMS-273 0.236 µM | HOP-18 0.721 µM | KM-20L2 0.333 µM | LXFL 529 0.198 µM | M19-MEL 0.4 µM | SNB-78 0.895 µM | XF498 0.0841 µM

COC(=O)N/N=C(\C)c1sc(-c2nc(C)c(/C(C)=N/NC(=O)OC)s2)nc1C
inactive: DMS-114 42.2 µM | DMS-273 95.9 µM | HOP-18 > 100 µM | KM-20L2 > 100 µM | LXFL 529 > 100 µM | M19-MEL > 100 µM | RXF 631 > 100 µM | SNB-78 62.7 µM

Cc1cc(/N=N/c2ccc(/N=N/c3c(O)c(S(=O)(=O)O)cc4cc(S(=O)(=O)O)ccc34)cc2C)ccc1/N=N/c1ccc2cc(S(=O)(=O)O)cc(S(=O)(=O)O)c2c1
inactive: DMS-114 > 100 µM | DMS-273 98.4 µM | HOP-18 > 100 µM | KM-20L2 54.8 µM | M19-MEL > 100 µM | SNB-78 > 100 µM | XF498 > 73.5 µM

C/C(=N\Nc1nnc(S)n1N)c1c(O)cc(C)oc1=O
inactive: HOP-18 > 100 µM | KM-20L2 > 100 µM | LXFL 529 > 100 µM | M19-MEL > 100 µM | SNB-78 > 100 µM

C=C1CCC2C(C)(CO)C(O)CCC2(C)C1CC(O)/C(=C/CO)C(=O)O (stereo unspecified)
inactive: DMS-114 > 100 µM | DMS-273 > 100 µM | HOP-18 > 100 µM | KM-20L2 > 100 µM | LXFL 529 > 100 µM | M19-MEL > 100 µM | RXF 631 > 100 µM | SNB-78 > 100 µM

C/C=C/CC(S(=O)(=O)c1ccccc1)S(=O)(=O)c1ccccc1
inactive: DMS-114 14 µM | DMS-273 > 100 µM | HOP-18 > 100 µM | KM-20L2 > 100 µM | XF498 > 100 µM

NC(=O)c1ncn(CCN2CCN(C(=O)NCCCCCCNC(=O)N3CCN(CCn4cnc(C(N)=O)c4N)CC3)CC2)c1N
inactive: DMS-273 > 100 µM | HOP-18 > 100 µM | KM-20L2 > 100 µM | LXFL 529 > 100 µM | RXF 631 > 100 µM | SNB-78 > 100 µM | XF498 > 100 µM

CC12O[Te]34OC1(C)C(C)(O3)C2(C)O4
inactive: DMS-114 13.6 µM | DMS-273 16.4 µM | HOP-18 17.5 µM | KM-20L2 32.4 µM | LXFL 529 14.6 µM | M19-MEL 13.5 µM | SNB-78 25.5 µM

O=C1C(=O)N(c2ccc(Cl)c(Cl)c2)C(=O)C(=O)C1c1nc2ccccc2s1
inactive: DMS-114 > 100 µM | DMS-273 > 100 µM | HOP-18 21.8 µM | KM-20L2 > 100 µM | LXFL 529 > 100 µM | M19-MEL > 100 µM | SNB-78 > 100 µM

CN(/N=N/c1[nH]cnc1C(N)=O)C1CCCCC1
inactive: DMS-114 > 100 µM | DMS-273 41.2 µM | KM-20L2 81.3 µM | LXFL 529 > 100 µM | M19-MEL > 100 µM | SNB-78 > 100 µM | XF498 75.7 µM

O=C(CC1(O)C(=O)Nc2c(Cl)cccc21)c1ccccc1 (stereo unspecified)
inactive: DMS-114 > 100 µM | DMS-273 > 100 µM | HOP-18 > 100 µM | KM-20L2 > 100 µM | LXFL 529 > 100 µM | SNB-78 > 100 µM | XF498 > 100 µM

CC1=NN2C(c3ccc([N+](=O)[O-])cc3)=CSC2=NC(C)(C)C1
inactive: DMS-114 67.8 µM | DMS-273 > 100 µM | HOP-18 > 100 µM | KM-20L2 > 100 µM | LXFL 529 > 100 µM | M19-MEL > 100 µM | RXF 631 > 100 µM | SNB-78 > 100 µM | XF498 > 100 µM

CN(C)c1cccc(OC(=O)NCCCl)c1
inactive: DMS-114 > 100 µM | DMS-273 > 100 µM | HOP-18 > 100 µM | M19-MEL > 100 µM | XF498 > 100 µM

CCC1=C(C)/C(=C/c2[nH]c(CBr)c(CC)c2C)N=C1CBr
inactive: DMS-114 7.21 µM | DMS-273 > 100 µM | HOP-18 11 µM | KM-20L2 11.4 µM | LXFL 529 4.43 µM | M19-MEL 13.7 µM | RXF 631 > 100 µM

CCS(=O)(=O)Nc1ccc(Nc2c3ccccc3nc3ccccc23)c(OC)c1
inactive: KM-20L2 1.43 µM | M19-MEL 1.64 µM | SNB-78 4.89 µM
active: DMS-114 0.216 µM | DMS-273 0.0324 µM | HOP-18 0.809 µM | XF498 0.0223 µM

CCOC(=O)C(Sc1ccccc1)c1c(OC)cc(=O)oc1/C=[N+](/[O-])c1ccc(N(C)C)cc1 (stereo unspecified)
inactive: DMS-114 19.4 µM | DMS-273 14 µM | HOP-18 17.1 µM | KM-20L2 31.8 µM | LXFL 529 14.1 µM | M19-MEL 19.8 µM | SNB-78 27.1 µM | XF498 14.6 µM

C[n+]1ccc2[nH]c3ccccc3c2c1
inactive: DMS-273 > 100 µM | HOP-18 > 45 µM | KM-20L2 > 100 µM | LXFL 529 > 100 µM | M19-MEL > 100 µM | SNB-78 > 100 µM

CN(C)CC1CCC/C1=N/OC(=O)c1ccccc1 (stereo unspecified)
inactive: DMS-114 > 100 µM | DMS-273 > 100 µM | HOP-18 > 100 µM | KM-20L2 > 100 µM | LXFL 529 > 100 µM | M19-MEL > 100 µM | RXF 631 > 100 µM | SNB-78 > 100 µM

CC1=C(C(=O)Nc2ccccc2)C(c2ccccc2Cl)C(C(=O)Nc2ccccc2)=C(C)N1
inactive: DMS-273 20.8 µM | HOP-18 21.9 µM | KM-20L2 22.2 µM | LXFL 529 17.6 µM | M19-MEL 19.8 µM | RXF 631 36.1 µM

CCc1ccccc1NC(=O)C1=C(C)NC(C)=C(C(=O)Nc2ccccc2CC)C1c1ccccc1Cl
inactive: DMS-114 > 100 µM | KM-20L2 > 100 µM | LXFL 529 > 100 µM | M19-MEL > 100 µM | SNB-78 > 100 µM
active: XF498 0.152 µM

O=C(Nc1ccccc1-c1nn(CN2CCNCC2)c(=S)n(CN2CCNCC2)c1=O)C(F)(F)F
inactive: DMS-114 19.1 µM | DMS-273 18.1 µM | HOP-18 18.2 µM | M19-MEL 17.9 µM | RXF 631 20.7 µM | SNB-78 23 µM

Cc1nc2c(=O)n(C)c(=O)nc-2n(-c2ccc(Cl)cc2)c1C
inactive: DMS-114 > 100 µM | DMS-273 > 100 µM | HOP-18 > 100 µM | KM-20L2 46.7 µM | LXFL 529 62.7 µM | M19-MEL > 100 µM | RXF 631 > 100 µM | SNB-78 > 100 µM | XF498 > 100 µM

CC1NC(=O)CNC(=O)CNC(=O)C(Cc2ccc(O)cc2)NC(=O)C(C(C)C)NC(=O)C(C)NC1=O (stereo unspecified) (cyclo(GGAAVY); configuration not given here)
inactive: DMS-114 > 100 µM | DMS-273 > 100 µM | HOP-18 30.1 µM | M19-MEL > 100 µM | XF498 > 100 µM

CC(C)C[C@H](NC(=O)[C@H](CC(C)C)NC(=O)[C@@H](Cc1c[nH]c2ccccc12)NC(=O)[C@H](Cc1ccccc1)NC(=O)[C@@H](Cc1c[nH]c2ccccc12)NC(=O)[C@H](CCC(N)=O)NC(=O)[C@@H](CCC(N)=O)NC(=O)[C@@H]1CCCN1C(=O)[C@@H](CCCCN)NC(=O)[C@H]1CCCN1C(=O)[C@H](N)CCCN=C(N)N)C(N)=O (H-[dR][dP][dK]P[dQ]Q[dW]F[dW]LL-NH2)
inactive: DMS-114 > 100 µM | DMS-273 > 100 µM | HOP-18 > 100 µM | KM-20L2 > 100 µM | M19-MEL > 100 µM | SNB-78 > 100 µM | XF498 > 100 µM

CCOc1ccccc1NC(=O)CC1Sc2ccccc2NC1=O (stereo unspecified)
inactive: DMS-273 48.6 µM | HOP-18 53.2 µM | KM-20L2 57.7 µM | LXFL 529 59.2 µM | M19-MEL 64.4 µM | RXF 631 58.5 µM | SNB-78 > 100 µM | XF498 80.4 µM

COc1cccc(-n2c3nc(=O)n(C)c(=O)c-3nc3ccccc32)c1
inactive: DMS-114 5.11 µM | DMS-273 6.95 µM | HOP-18 42.9 µM | KM-20L2 4.83 µM | LXFL 529 21.6 µM | M19-MEL 2.43 µM | RXF 631 19.1 µM | SNB-78 29.1 µM | XF498 16.3 µM

O=C(CCN1CCOCC1)C(=Cc1ccccc1)C(=O)CCN1CCOCC1
active: SNB-78 0.164 µM
inactive: DMS-273 8.65 µM | HOP-18 16.8 µM | KM-20L2 9.16 µM | M19-MEL 2.83 µM | XF498 4.29 µM
